Broadly, the IC50 is the midpoint of a concentration-inhibition curve.

Counter-ions that a name gives are not always drawn. Like-named read-outs stand apart in the source and are kept apart here.

In US20230391786A1, “cGAS INHIBITORS” (Eli Lilly and Company, priority 2022, published 2023) one finds IC50 data, which are given here for 28 compounds.

For test [1], the system named is cGAS activity in THP1 cells (IFNb as marker). Nature of the test: Cellular assay to measure cGAS activity (IFNb production in PMA-differentiated THP1 cells stimulated by RDG-Adenovirus-GFP). The test is classed as cell-based, human. Conditions: PMA differentiated, RDG-Adenovirus-GFP 1000 MOI, IFNb AlphaLISA, overnight incubation, read-out: IC50 (μM), Cellular assay for Compounds 95-348. The method, boiled down:
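PMA-differentiated THP1 cells were infected with RDG-Adenovirus-GFP at 1000 MOI for 4 h, then exposed overnight to test compounds. IFNb in the supernatant was quantified by AlphaLISA as a cGAS activity marker, and IC50 was fitted with a 4-parameter logistic equation.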
(In general: Alpha assays give light when donor and acceptor beads are brought close together.)

The target in the next test is recombinant human cGAS (Homo sapiens (Human), UniProt Q8N884). Nature of the test: In vitro inhibition assay of cGAS activity (cGAMP production, RapidFire mass spectrometry). The test is classed as biochemical. As to conditions: 10 nM recombinant human cGAS, 60 nM 75-bp dsDNA, ATP, GTP, room temperature 3 hours, read-out: IC50 (μM), In vitro inhibition assay for Compounds 95-348. The method, boiled down:
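Full-length His6-tagged human cGAS (10 nM, E. coli-expressed) was incubated 3 h at room temperature with 60 nM 75-bp dsDNA, ATP, 50 μM GTP and compound at pH 7.5 with 5 mM MgCl2. cGAMP formation was measured by RapidFire mass spectrometry, and IC50 was taken from a 4-parameter logistic fit.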

Setting [2] is: Homo sapiens, THP-1, THP1 cells.

Chain of recombinant human cGAS (Q8N884 whole entry): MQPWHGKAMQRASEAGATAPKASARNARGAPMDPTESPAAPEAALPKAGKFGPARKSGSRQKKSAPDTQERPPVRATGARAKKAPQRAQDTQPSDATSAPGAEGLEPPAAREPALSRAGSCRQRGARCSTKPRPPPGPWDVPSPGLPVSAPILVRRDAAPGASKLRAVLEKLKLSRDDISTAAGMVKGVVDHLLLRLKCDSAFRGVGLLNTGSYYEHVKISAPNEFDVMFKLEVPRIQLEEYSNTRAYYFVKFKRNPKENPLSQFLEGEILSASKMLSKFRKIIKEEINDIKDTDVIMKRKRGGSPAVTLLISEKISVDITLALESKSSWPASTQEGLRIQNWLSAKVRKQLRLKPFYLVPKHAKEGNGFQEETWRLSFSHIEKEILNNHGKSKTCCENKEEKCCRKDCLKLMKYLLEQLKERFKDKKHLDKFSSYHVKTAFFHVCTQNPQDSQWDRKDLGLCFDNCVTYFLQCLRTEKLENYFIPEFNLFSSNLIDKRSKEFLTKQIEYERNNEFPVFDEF

Take `CC(=O)NCc1[nH]c2c(Cl)c(Cl)cc(OCC#N)c2c1-c1cn[nH]c1` [Example 153, N-((6,7-Dichloro-4-(cyanomethoxy)-3-(1H-pyrazol-4-yl)-1H-indol-2-yl)methyl)acetamide]: the 50% inhibitory concentration (IC50) in test [1] (setting [2]) was determined as 0.807 µM; on recombinant human cGAS, 0.00511 µM.
Regarding `O=C(O)[C@@H]1CCCN1C(=O)c1[nH]c2c(Cl)c(Cl)ccc2c1-c1cn[nH]c1` [Example 258, (2 S)-1-[6,7-Dichloro-3-(1H-pyrazol-4-yl)-1H-indole-2-carbonyl]pyrrolidine-2-carb oxylic acid], the IC50 was > 10 µM in test [1] (setting [2]) and 0.0757 µM at recombinant human cGAS.
Turning to `CC(=O)N(C)CCC(=O)N1CCn2c(c(-c3cn[nH]c3)c3ccc(Cl)c(Cl)c32)C1` [Example 308, N-(3-(6,7-Dichloro-10-(1H-pyrazol-4-yl)-3,4-dihydropyrazino[1,2-a]indol-2(1H)-yl)-3-oxopropyl)-N-methylacetamide], the results for the 50% inhibitory concentration (IC50) (in test [1] (setting [2]); on recombinant human cGAS) were 7.9 µM and 0.0423 µM, respectively.
In the case of `CC(=S)Nc1cc(Cl)c(Cl)c2[nH]cc(-c3cn[nH]c3)c12` [Example 231, N-[6,7-Dichloro-3-(1H-pyrazol-4-yl)-1H-indol-4-yl]thioacetamide], the IC50 in test [1] (setting [2]) stood at 1.01 µM; at recombinant human cGAS, 0.0724 µM.
For the compound `O=C(Cc1ccn[nH]1)N1CCn2c(c(-c3cn[nH]c3)c3ccc(Cl)c(Cl)c32)C1` [Example 266, 1-[6,7-Dichloro-10-(1H-pyrazol-4-yl)-3,4-dihydro-1H-pyrazino[1,2-a]indol-2-yl]-2-(1H-pyrazol-5-yl)ethanone], the figures for the IC50 (in test [1] (setting [2]); at recombinant human cGAS) were 9.93 µM and 0.0401 µM, respectively.
The corresponding values for `CC(CO)CNc1cc(Cl)c(Cl)c2[nH]cc(-c3cn[nH]c3)c12` (centres unmarked) [Example 205, 3-[[6,7-Dichloro-3-(1H-pyrazol-4-yl)-1H-indol-4-yl]amino]-2-methyl-propan-1-ol] are 1.32 µM and 0.0287 µM.
On to `CC(=O)NCC(=O)NC1CCn2c1c(-c1cn[nH]c1)c1ccc(Cl)c(Cl)c12` (centres unmarked) [Example 236, 2-Acetamido-N-(5,6-dichloro-9-(1H-pyrazol-4-yl)-2,3-dihydro-1H-pyrrolo[1,2-a]indol-1-yl)acetamide], for which the IC50 in test [1] (setting [2]) was > 10 µM; at recombinant human cGAS, 0.0331 µM.
As to `CC(=O)N1CCn2c(c(-c3cn[nH]c3)c3c(NC(=O)C(F)F)cc(Cl)c(Cl)c32)C1` [Example 263, N-[2-Acetyl-6,7-dichloro-10-(1H-pyrazol-4-yl)-3,4-dihydro-1H-pyrazino[1,2-a]indol-9-yl]-2,2-difluoro-acetamide], the figures for the IC50 (in test [1] (setting [2]); on recombinant human cGAS) were 0.509 µM and 0.0173 µM, respectively.
On to `NC(=O)Cn1cc(-n2cc(-c3cn[nH]c3)c3ccc(Cl)cc32)nn1` [Example 227, 2-[4-[6-Chloro-3-(1H-pyrazol-4-yl)indol-1-yl]triazol-1-yl]acetamide], for which the IC50 is 1.6 µM in test [1] (setting [2]) and 0.0408 µM at recombinant human cGAS.
For the compound `OCCCNc1cc(Cl)c(Cl)c2[nH]cc(-c3cn[nH]c3)c12` [Example 144, 3-[[6,7-Dichloro-3-(1H-pyrazol-4-yl)-1H-indol-4-yl]amino]propan-1-ol], the concentration for half-maximal inhibition (IC50) was found to be 1.47 µM in test [1] (setting [2]) and 0.00433 µM at recombinant human cGAS.
As to `O[C@H]1C[C@@H](Oc2cc(Cl)c(Cl)c3[nH]cc(-c4cn[nH]c4)c23)C1` [Example 207, Cis-3-[[6,7-Dichloro-3-(1H-pyrazol-4-yl)-1H-indol-4-yl]oxy]cyclobutanol], the concentration for half-maximal inhibition (IC50) in test [1] (setting [2]) was 1.63 µM; at recombinant human cGAS, 0.042 µM.
Turning to `CN1CCC(C(=O)N2CCn3c(c(-c4cn[nH]c4)c4ccc(Cl)c(Cl)c43)C2)CC1=O` (centres unmarked) [Example 303, 4-(6,7-Dichloro-10-(1H-pyrazol-4-yl)-1,2,3,4-tetrahydropyrazino[1,2-a]indole-2-carbonyl)-1-methylpiperidin-2-one], the IC50 was > 10 µM in test [1] (setting [2]) and 0.0349 µM at recombinant human cGAS.
Turning to `CC(=O)NCC(=O)NC1CCc2c(-c3cn[nH]c3)c3ccc(Cl)c(Cl)c3n2C1` (centres unmarked) [Example 107, 2-Acetamido-N-[3,4-dichloro-10-(1H-pyrazol-4-yl)-6,7,8,9-tetrahydropyrido[1,2-a]indol-7-yl]acetamide], the IC50 in test [1] (setting [2]) was found to be 5.56 µM; on recombinant human cGAS, 0.0196 µM.
`N#CCOc1cc(Cl)c(Cl)c2c1c(-c1cn[nH]c1)c1n2CCC1CO` (centres unmarked) [Example 347, 2-((5,6-Dichloro-1-(hydroxymethyl)-9-(1H-pyrazol-4-yl)-2,3-dihydro-1H-pyrrolo[1,2-a]indol-8-yl)oxy)acetonitrile]: the IC50 in test [1] (setting [2]) was 0.865 µM; on recombinant human cGAS it was 0.0122 µM.
For the compound `NC(=O)COc1cc(Cl)c(Cl)c2c1c(-c1cn[nH]c1)c1n2CCN(C(=O)CO)C1` [Example 269, 2-[[6,7-Dichloro-2-(2-hydroxyacetyl)-10-(1H-pyrazol-4-yl)-3,4-dihydro-1H-pyrazino[1,2-a]indol-9-yl]oxy]acetamide], the figures for the half-inhibitory concentration (IC50) (in test [1] (setting [2]); on recombinant human cGAS) were > 10 µM and 0.0306 µM, respectively.
Turning to `Cn1c(CNC(=O)CO)c(-c2cn[nH]c2)c2ccc(Cl)c(Cl)c21` [Example 133, N-[[6,7-Dichloro-1-methyl-3-(1H-pyrazol-4-yl)indol-2-yl]methyl]-2-hydroxy-acetamide], the concentration for half-maximal inhibition (IC50) in test [1] (setting [2]) amounted to 0.498 µM; on recombinant human cGAS it was 0.0112 µM.
As for `Clc1ccc2c(-c3cn[nH]c3)cn(-c3c[nH]nn3)c2c1` [Example 226, 6-Chloro-3-(1H-pyrazol-4-yl)-1-(1H-triazol-4-yl)indole], the concentration for half-maximal inhibition (IC50) in test [1] (setting [2]) is 2.27 µM; on recombinant human cGAS, 0.0563 µM.
With `COCCN1CCn2c(c(-c3cn[nH]c3)c3c(NC(=O)C(F)F)cc(Cl)c(Cl)c32)C1=O` [Example 252, N-[6,7-Dichloro-2-(2-methoxyethyl)-1-oxo-10-(1H-pyrazol-4-yl)-3,4-dihydropyrazino[1,2-a]indol-9-yl]-2,2-difluoro-acetamide], the half-inhibitory concentration (IC50) in test [1] (setting [2]) came out at 0.726 µM; at recombinant human cGAS, 0.033 µM.
Regarding `CC(=O)N1CCn2c(c(-c3cn[nH]c3)c3c(NC(=O)C(F)(F)F)cc(Cl)c(Cl)c32)C1` [Example 256, N-[2-Acetyl-6,7-dichloro-10-(1H-pyrazol-4-yl)-3,4-dihydro-1H-pyrazino[1,2-a]indol-9-yl]-2,2,2-trifluoro-acetamide], the figures for the IC50 (in test [1] (setting [2]); on recombinant human cGAS) were 4.8 µM and 0.0386 µM, respectively.
Turning to `O=C(Nc1cc(Cl)c(Cl)c2c1c(-c1cn[nH]c1)c1n2CCN(C(=O)[C@@H]2COCCO2)C1)C(F)F` [Example 273, N-[6,7-Dichloro-2-[(2 S)-1,4-dioxane-2-carbonyl]-10-(1H-pyrazol-4-yl)-3,4-dihydro-1H-pyrazino[1,2-a]indol-9-yl]-2,2-difluoro-acetamide], the half-maximal inhibitory concentration (IC50) came out at 0.56 µM in test [1] (setting [2]) and 0.0206 µM on recombinant human cGAS.
For the compound `CC(=O)N[C@H]1Cc2c(-c3cn[nH]c3)c3c(OCC#N)cc(Cl)c(Cl)c3n2C1` [Example 245, (S)—N-(5,6-Dichloro-8-(cyanomethoxy)-9-(1H-pyrazol-4-yl)-2,3-dihydro-1H-pyrrolo[1,2-a]indol-2-yl)acetamide], the IC50 in test [1] (setting [2]) came to 0.872 µM; on recombinant human cGAS it was 0.0122 µM.
With `O=C(C1COCCOC1)N1CCn2c(c(-c3cn[nH]c3)c3ccc(Cl)c(Cl)c32)C1` [Example 310, (6,7-Dichloro-10-(1H-pyrazol-4-yl)-3,4-dihydropyrazino[1,2-a]indol-2(1H)-yl)(1,4-dioxepan-6-yl)methanone], the IC50 was > 10 µM in test [1] (setting [2]) and 0.0428 µM on recombinant human cGAS.
For the compound `O=C(NC1CCc2c(-c3cn[nH]c3)c3ccc(Cl)c(Cl)c3n2C1)C1CCOCC1` (centres unmarked) [Example 96, N-[3,4-Dichloro-10-(1H-pyrazol-4-yl)-6,7,8,9-tetrahydropyrido[1,2-a]indol-7-yl]tetrahydropyran-4-carboxamide], the half-maximal inhibitory concentration (IC50) worked out at 2.43 µM in test [1] (setting [2]) and 0.0449 µM at recombinant human cGAS.
Regarding `O[C@@H]1C[C@H](Oc2cc(Cl)c(Cl)c3[nH]cc(-c4cn[nH]c4)c23)[C@@H](O)C1` (racemic) [Example 220, 4-[[6,7-Dichloro-3-(1H-pyrazol-4-yl)-1H-indol-4-yl]oxy]cyclopentane-1,3-diol (racemic mixture)], the IC50 in test [1] (setting [2]) turned out to be 0.556 µM; on recombinant human cGAS it was 0.0301 µM.
Turning to `CC(=O)Nc1cc(Cl)c(Cl)c2c1c(-c1cn[nH]c1)cn2-c1cn(CCO)nn1` [Example 199, N-[6,7-Dichloro-1-[1-(2-hydroxyethyl)triazol-4-yl]-3-(1H-pyrazol-4-yl)indol-4-yl]acetamide], the half-maximal inhibitory concentration (IC50) in test [1] (setting [2]) amounted to 2.66 µM; at recombinant human cGAS, 0.0519 µM.
Consider `NC(=O)CCC(=O)N1CCn2c(c(-c3cn[nH]c3)c3ccc(Cl)c(Cl)c32)C1` [Example 297, 4-(6,7-Dichloro-10-(1H-pyrazol-4-yl)-3,4-dihydropyrazino[1,2-a]indol-2(1H)-yl)-4-oxobutanamide], for which the half-maximal inhibitory concentration (IC50) in test [1] (setting [2]) is > 10 µM; at recombinant human cGAS it was 0.0251 µM.
`NCCn1cc(-n2cc(-c3cn[nH]c3)c3ccc(Cl)cc32)nn1` [Example 228, 2-[4-[6-Chloro-3-(1H-pyrazol-4-yl)indol-1-yl]triazol-1-yl] ethanamine formic acid salt]: the half-maximal inhibitory concentration (IC50) in test [1] (setting [2]) was 1.46 µM; at recombinant human cGAS, 0.0493 µM.
As to `O[C@@H]1C[C@H](Oc2cc(Cl)c(Cl)c3[nH]cc(-c4cn[nH]c4)c23)[C@@H](O)C1` (single isomer, unassigned) [Example 271, 4-[[6,7-Dichloro-3-(1H-pyrazol-4-yl)-1H-indol-4-yl]oxy]cyclopentane-1,3-diol], the IC50 in test [1] (THP1 cells) came out at 6.75 µM; on recombinant human cGAS it was 0.184 µM.
